Holding throughout (test): NCI-60 cell line screen, 48 h
Assay [1] has as its system HCT-116.
Assay [2] concerns K562.
The subject of assay [3] is NCI/ADR-RES.
The test system of assay [4] is DMS-273.
The test system of assay [5] is HCC 2998.
In assay [6] the test system is UACC-257.
In assay [7] the test system is EKVX.
Assay [8] has as its system RPMI-8226.
The test system of assay [9] is CAKI-1.
Assay [10] has as its system OVCAR-3.
Assay [11] relates to HCT-15.
For assay [12], the system named is XF498.
The test system of assay [13] is SN12C.
Assay [14] has as its system DLD-1.
Assay [15] relates to SF-268.
In assay [16] the test system is MCF7.
Assay [17] relates to T47D.
The test system of assay [18] is MDA-MB-231.
Assay [19] concerns MDA-MB-435.
The test system of assay [20] is DMS-114.

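96-well plates; 48 h exposure; 5 concentrations. Endpoints by linear interpolation between flanking doses. Not reached: highest tested concentration assigned. The concentration for 50% growth inhibition is given as GI50.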 Calls of active or inactive are those of the source. Rule as the data show it: active = GI50 up to about 1.1 µM and inactive = higher.

Take `NC(=S)N/N=C/c1ccc(OC(=O)COc2ccccc2Cl)cn1`: the GI50 in [1] was 26.5 µM (inactive); in [2] it was 23.1 µM (inactive); in assay [3] it was 15.4 µM (inactive); in assay [4], 21 µM (inactive); in [5], 36.6 µM (inactive); in [6], 50.1 µM (inactive). For the same compound, the GI50 was 56.4 µM (inactive) in [7]; 46.3 µM (inactive) in assay [8]; 44.2 µM (inactive) in [9]; 23.2 µM (inactive) in assay [10]; 39.5 µM in assay [11]; 40 µM (inactive) in assay [12]. The GI50 in assay [13] is 30.5 µM (inactive); in assay [14] it was 33 µM (inactive); in assay [15], 17.9 µM (inactive); in assay [16], 10.5 µM (inactive).

Regarding `O=C1Nc2ccc(S(=O)(=O)N(CCO)CCO)cc2/C1=C1/Nc2ccccc2C1=O`, the GI50 is 51.6 µM (inactive) in assay [1]; 0.679 µM (active) in assay [17]; > 100 µM (inactive) in assay [2]; > 100 µM (inactive) in assay [3]; > 100 µM (inactive) in [5]; > 100 µM (inactive) in [6]. For the same compound, the GI50 was > 100 µM (inactive) in [7]; > 100 µM (inactive) in assay [8]; > 100 µM (inactive) in assay [9]; 18.2 µM (inactive) in assay [10]; 40.5 µM (inactive) in assay [18]; over 100 µM in assay [11]. In addition, the GI50 in assay [19] was > 100 µM (inactive); in assay [13], > 100 µM (inactive); in assay [15], > 100 µM (inactive); in [16], 0.615 µM (active).

For `O=C1C[C@H](c2ccccc2)C2(C(=O)c3ccccc3C2=O)[C@@H](c2ccccc2)C1`, the GI50 in assay [17] was 43.1 µM (inactive); in assay [2], 9.86 µM (inactive); in assay [3], 23.2 µM (inactive); in assay [5], 23.3 µM (inactive); in assay [8] it was > 100 µM (inactive); in assay [9], 7.59 µM (inactive). In addition, the GI50 in [10] is 26.9 µM (inactive); in [18], 20.7 µM (inactive); in [11] it was 25.3 µM; in assay [19], > 10 µM (inactive); in assay [13] it was 24.2 µM (inactive); in assay [16], 37.2 µM (inactive).

For `CC1OC(OC2C(OC(=O)[C@@H]3CC(C)(C)C[C@H]4C5=CC[C@@H]6[C@@]7(C)C[C@H](O)[C@H](OC8OC(CO)C(O)C(O)C8O)[C@@](C)(CO)[C@@H]7[C@H](O)C[C@@]6(C)[C@]5(C)CC[C@@]34C)OCC(O)C2O)C(O)C(O)C1O` (stereo partly specified), the GI50 in assay [1], in assay [17], in assay [2], in assay [3], in assay [5] and in assay [6] was > 7.5 µM (inactive) in each case. For the same compound, the GI50 in assay [7] is > 7.5 µM (inactive); in assay [9] it was > 7.5 µM (inactive); in assay [10] it was > 7.5 µM (inactive); in [18], > 7.5 µM (inactive); in assay [11] it was over 7.5 µM; in assay [19], > 7.5 µM (inactive). Also, the GI50 in assay [13], in assay [15] and in assay [16] was > 7.5 µM (inactive) each time.

As to `CN(C)CCN(/C(=N/c1ccccc1)N1CCCC1)c1ccccc1`, the GI50 in [1] is 3.91 µM (inactive); in assay [17], > 100 µM (inactive); in assay [2], 10.3 µM (inactive); in assay [3] it was 42.3 µM (inactive); in [6], 55.1 µM (inactive); in assay [7] it was > 100 µM (inactive). The GI50 was 22.6 µM (inactive) in assay [8]; > 100 µM (inactive) in assay [9]; 37.3 µM (inactive) in [10]; 26.8 µM in assay [11]; 15.5 µM (inactive) in assay [19]; 50.5 µM (inactive) in [13]. Moreover, the GI50 in [15] was > 100 µM (inactive); in [16], 42.5 µM (inactive).

As for `CC1CC2C3CC(F)C4=CC(=O)C=CC4(C)C3(F)C(O)CC2(C)C1(O)C(=O)COC(=O)C(C)(C)C` (stereo unspecified), the GI50 is > 100 µM (inactive) in [20]; > 100 µM (inactive) in assay [1]; > 100 µM (inactive) in assay [2]; > 100 µM (inactive) in [4]; > 100 µM (inactive) in assay [5]; 57.9 µM (inactive) in [6]. The GI50 in assay [7] is > 100 µM (inactive); in assay [8] it was 44.4 µM (inactive); in assay [9] it was > 100 µM (inactive); in assay [10], > 100 µM (inactive); in assay [11] it was over 100 µM; in [12] it was > 100 µM (inactive). The GI50 is > 100 µM (inactive) in [14] and 64.4 µM (inactive) in assay [15].

`CC(=O)N/C(=C\c1ccc(/C=C(\NC(C)=O)C2=NC3C(=O)c4ccccc4C(=O)C3N2)cc1)C1=NC2C(=O)c3ccccc3C(=O)C2N1` (stereo unspecified): the GI50 in assay [20] was 8 µM (inactive); in assay [1], 14.4 µM (inactive); in [2] it was 19.3 µM (inactive); in assay [4] it was 19.6 µM (inactive); in [6] it was > 100 µM (inactive); in [7], 15.6 µM (inactive). In addition, the GI50 was 5.05 µM (inactive) in assay [8]; 3.27 µM (inactive) in assay [9]; 49.3 µM (inactive) in assay [10]; 9.14 µM in assay [11]; > 100 µM (inactive) in [12]; 22.6 µM (inactive) in assay [13]. Besides, the results for the GI50 in [14] and in assay [15] were 7.71 µM (inactive) and 5.7 µM (inactive), respectively.

For `NC(=O)Nc1cc(O)ccc1/N=N/c1ccc(S(=O)(=O)Nc2ccccn2)cc1`, the GI50 in [20], in assay [1], in assay [2], in [4], in assay [5] and in assay [6] was > 100 µM (inactive) in each case. Further, the GI50 in assay [7] is > 100 µM (inactive); in assay [8] it was > 100 µM (inactive); in [9], > 100 µM (inactive); in [10] it was > 100 µM (inactive); in assay [11], over 100 µM; in [12], > 100 µM (inactive). Also, the GI50 in [13] and in assay [15] was > 100 µM (inactive) in each case.

As for `O=C(/C=C/c1ccc(Cl)c(Cl)c1)C1CCC(Cl)CC1` (stereo unspecified), the GI50 is 16.3 µM (inactive) in [20]; 11.8 µM (inactive) in assay [1]; 16.8 µM (inactive) in assay [4]; 17.2 µM (inactive) in assay [5]; 18.5 µM (inactive) in assay [6]; 17.4 µM (inactive) in assay [7]. The GI50 in [8] is 4.69 µM (inactive); in [9] it was 21.3 µM (inactive); in assay [10] it was 15 µM (inactive); in assay [11] it was 18.2 µM; in [12], 16 µM (inactive); in [13], 17.7 µM (inactive). For the same compound, the figures for the GI50 in [14] and in assay [15] were 15.6 µM (inactive) and 19.5 µM (inactive), respectively.

Consider `Nc1c(Cl)c([N+](=O)[O-])cc2c1OCCCCO2`, for which the GI50 is > 100 µM (inactive) in [1]; > 100 µM (inactive) in [17]; > 100 µM (inactive) in assay [2]; 89.5 µM (inactive) in assay [3]; > 100 µM (inactive) in assay [5]; > 100 µM (inactive) in [6]. Besides, the GI50 in assay [7] was 61.8 µM (inactive); in [8], > 100 µM (inactive); in assay [9] it was 56.4 µM (inactive); in [10], > 100 µM (inactive); in assay [18], 83.4 µM (inactive); in assay [11], over 100 µM. The GI50 in assay [19], in [13], in assay [15] and in assay [16] was > 100 µM (inactive) throughout.

Turning to `Cc1cc(NS(=O)(=O)c2ccc(Nc3c4ccccc4nc4c(C(=O)N5CCN(CCO)CC5)ccc(Cl)c34)cc2)no1`, the GI50 was > 100 µM (inactive) in assay [20]; > 100 µM (inactive) in assay [1]; 48.4 µM (inactive) in [2]; > 100 µM (inactive) in assay [4]; 71.8 µM (inactive) in assay [5]; > 100 µM (inactive) in assay [6]. The GI50 in assay [8] is 70.1 µM (inactive); in [9], > 100 µM (inactive); in [10], > 100 µM (inactive); in assay [11], over 100 µM; in assay [12] it was > 100 µM (inactive); in assay [13], 72.1 µM (inactive). Besides, the GI50 in assay [14] was 52.5 µM (inactive); in [15], 98.9 µM (inactive).

In the case of `COc1cc(OC)c(SSCCCCS(=O)O)c(OC)c1`, the GI50 in [20] is 16.6 µM (inactive); in assay [1], 16.3 µM (inactive); in assay [2], 17.4 µM (inactive); in assay [4], 16.7 µM (inactive); in [5], 20.1 µM (inactive); in assay [6] it was 10.7 µM (inactive). For the same compound, the GI50 in assay [7] is 13.7 µM (inactive); in assay [9], > 10 µM (inactive); in [10], 15.1 µM (inactive); in assay [11], 16.6 µM; in assay [12] it was 13.9 µM (inactive); in assay [13] it was 17.6 µM (inactive). In addition, the results for the GI50 in [14] and in [15] were 17.5 µM (inactive) and 15.5 µM (inactive), respectively.

Take `O=C1/C(=C/c2ccc(Cl)cc2)CNC/C1=C\c1ccc(Cl)cc1`: the GI50 in [1] was 0.83 µM (active); in [17], 5 µM (inactive); in assay [3] it was 2.91 µM (inactive); in assay [5] it was 1.57 µM (inactive); in assay [8], 0.5 µM (active); in [9], 1.58 µM (inactive). Further, the GI50 in assay [10] was 2.01 µM (inactive); in assay [18], 2.88 µM (inactive); in [11], 1.16 µM; in assay [19], 2.82 µM (inactive); in [13], 2.59 µM (inactive); in assay [15], 1.51 µM (inactive). For the same compound, the GI50 in assay [16] was 1.52 µM (inactive).

For the origin of these results see ChEMBL document CHEMBL1201862, “PubChem BioAssay data set” (2004).
